Laboratory results as given in patent US20140243391A1, “PHOSPHOLIPID-DETERGENT CONJUGATES AND USES THEREOF” (CENTRE NATIONAL DE LA RECHERCHE SCIENTIFIQUE, priority 2011, published 2014).
Values joined by “and” are separate entries in the source; they are usually repeats but may differ in a detail not shown here. Equal values may be shown once. Read-outs that look alike come from different tables or passages of the source. Each block holds one molecule with its values, some of them ahead of it.

Tests used:
U87-Luc cells = test: siRNA transfection, luciferase gene silencing; assay type: cell-based, human; parameters: Percentage of residual luciferase expression, Control siRNA, N/P: 25 / Percentage of residual luciferase expression, Control siRNA, N/P: 50 / Percentage of residual luciferase expression, Control siRNA, N/P: 100: concentration or dose not given beside the values; details: for luciferase silencing / siRNA transfection activity, in words: U87-Luc cells, siLuc vs control siRNA, 48 h, 10% FBS
BHK-21 cells [1] = test: pDNA (pCMVLuc) transfection in BHK-21 cells; assay type: cell-based, Syrian hamster; details: for pDNA transfection efficiency, in words: BHK-21, pCMVLuc, 10% FCS, N/P 1, 3, 5
Protocol: (§1) Lipids were freshly solubilized in ethanol at 1.24 mM concentration. Typically, 40.40 μL of 60 μM solution of DNA (pCMVLuc) in 4.5% glucose was added to the lipid (either 2.00, 5.85 or 9.75 μL deposited at the bottom of a 500 μL eppendorf tube and dried under vacuum). After gentle vortex agitation (30 sec), the complexes were allowed to stand at room temperature for 30 min before addition (10 μL, i.e. 0.2 μg DNA) into each well (triplicate). Cells were then let to grow in the incubator without further handling. Luciferase gene expression was assessed 24 h later using a commercial kit according to the manufacturer's protocol (Promega, Charbonnières, France). Cells were washed with PBS (100 μL) and lyzed with the Promega lysis buffer (20 μL). After agitation for 15 min, PBS (150 μL) was added. A 5 μL aliquot was transferred to a white microplate and luminescence was recorded for 1 sec with a luminometer (Berthold Centro LB960 XS, Thoiry, France) upon addition of the luciferin substrate (35 μL). Value for each sample is the mean of triplicate determinations (±SD).
The ability to transfect siRNA into U87Luc cells and pCMVLuc pDNA into BHK-21 was assessed for each synthetized analogue as shown in parts A and B hereabove.

U87Luc cells = test: LDH release assay, U87Luc cells; assay type: cell-based, human
BHK-21 cells [2] = test: LDH release assay, BHK-21 cells
[3] = Light scattering: particle size and zeta potential of lipoplexes; assay type: physicochemical; details: pCMVLuc lipoplexes, 5% glucose, N/P 3, 25° C.
Protocol: The average particle size of the liposomes and lipoplexes was measured by photon correlation spectroscopy using a Zetasizer nanoZS apparatus (Malvern Instruments, Paris, France). All measurements were conducted at 25° C. Data were analyzed using the multimodal number distribution software supplied with the instrument. For the preparation of lipoplexes, lipids were freshly solubilized in ethanol (1.24 mM) and deposited (60 μL) at the bottom of a 1.5 mL eppendorf tube. Volatiles were removed under reduced pressure to obtain a dry film. Typically, 404 μL of 60 μM solution of pCMVLuc in 4.5% glucose was added to the lipid. After 30 seconds vortexing and 15 minutes standing at room temperature, the complexes were diluted in 4.5 glucose (1096 μL) for measurements. Value for each sample is the mean of triplicate determinations (±SD).

[4] = system: A549, Calu-3, and NCI-H292 cell line; test: pDNA transfection in pulmonary cell lines, statements not tied to one line; assay type: cell-based; details: whatever the cell line considered, pCMVLuc, N/P 1-5
Protocol: as §1
The ability of compounds 1-9 to transfect plasmid DNA was assessed for the following cell lines: A549 cells (alveolar, human lung carcinoma), Calu-3 cells (bronchial, epithelial lung adenocarcinoma), and NCI-H292 cells (bronchial, human lung mucoepidermoid carcinoma). The results concerning transfection activity and LDH release for compounds 1 to 9 are shown in FIGS. 19A, 19B and 19C for cell line A549, Calu-3 and NCI-H292, respectively.

Sheep erythrocytes = test: Erythrocyte leakage (hemolysis) assay; assay type: cell-based; details: 2 h, 37° C.
Protocol: Hemolysis experiments were carried out according to a procedure described elsewhere. For recovery from washing steps, sheep red blood cells were centrifuged at 400 RCF for 10 min, and washed three times with 150 mM NaCl. […] Complete hemolysis was achieved using deionized water yielding the 100% control value. The negative control was obtained by suspension of RBC in phosphate buffer alone. The experiments were performed in triplicate.

16HBE cells = test: Cell mitochondrial activity (MTT assay); assay type: cell-based; details: 48 h
Protocol: Cells were grown in culture flasks (Becton-Dickinson) with DMEM culture medium supplemented with 10% FBS, 100 U/mL penicillin, 100 mg/mL streptomycin, 2 mM L-glutamine, and 5 mM Hepes. Culture was carried out at 37° C., in a 5% CO2 and humidified atmosphere. At confluence, cells were released with trypsin (0.5% in PBS), counted and transferred into a 96-well plate (Becton-Dickinson) at a density of 6,000 cells/well. On the next day (24 h later), culture medium was changed to fresh DMEM medium supplemented with 10% FBS before addition of lipoplexes (100 μL) prepared as described above. After a 48 h incubation period at 37° C., culture supernatant was removed, cells were carefully washed with PBS and 0.5 mg/mL MTT (1 mL) in complete culture medium was added. After a 2 h incubation period at 37° C., MTT solution was removed and DMSO (1 mL) was added to lyse cells and dissolve reduced MTT. Intensity of MTT reduction was then evaluated by measuring absorbance at 570 nm. Viability of cells treated with lipoplexes was expressed as the percentage of the absorbance measured in untreated cells. Value for each sample is the mean of triplicate determinations (±SD).

BHK-21 cells [5] = system: BHK-21 cells
[6] = system: A549, Calu-3, and NCI-H292 cell line; test: LDH release in pulmonary cell lines, statements not tied to one line; assay type: cell-based; details: cell lines investigated, pDNA lipoplexes
Protocol: Lactate dehydrogenase (LDH) release was used to assess the cytotoxicity of the formulations used in the transfection experiments described as outlined. Typically, at the end of each transfection experiment, the culture medium was removed and placed in another 96-wells plate. LDH activity was measured using a commercial kit (Cytotoxicity Detection Kit Plus, Roche Applied Science) according to the manufacturer's instructions. LDH activity was expressed as the percentage of the maximal LDH release obtained after treatment of the cells with the lysis solution kit (5 μL). Less than 10% LDH release was regarded as a measure of non-significant toxicity. Value for each sample is the mean of triplicate determinations (±SD).

[7] = Hydrolytic stability of liposomes by 31P-NMR; details: Table 3, liposomes
Protocol: For hydrolysis rate measurements using ^31P-NMR, liposomes were obtained by a solvent injection technique. […] The lipids (10 μmol) were dissolved in PrOH (200 μL) and then injected with a syringe with a flow rate of ca. 600 μL/min and a stirring speed of 400 rpm into the appropriate aqueous buffer medium (either Hepes 10 mM pH 7.4 or AcOK/AcOH 10 mM pH 4.5).
The hydrolytic stability of CPDCs/conjugates under neutral and acidic conditions was evaluated in a model experiment involving ^31P-NMR measurements. Phosphotriesters and phosphodiesters display ^31P chemical shifts differing by 5-6 ppm allowing a precise monitoring of the hydrolysis reaction. CPDCs/conjugates were formulated into liposomes using an injection technique.[47] Liposomes were prepared at pH 7.4 and pH 4.5, and incubated at 37° C. and hydrolysis was monitored by ^31P-NMR measurements.
For hydrolysis rate measurements involving ^31P-NMR spectoscopy and BET intercallation assays, liposomes were prepared by a solvent injection technique. A dry lipid film (10 μmol) was dissolved in i-PrOH (200 μL) and then injected with a syringe (flow rate: 600 μL/min) under stirring (stirring speed: 400 rpm) in the middle of the appropriate aqueous buffer medium (either Hepes 10 mM, pH 7.4 or AcOK/AcOH 10 mM, pH 4.5), at 22° C.
The cationic lipids were formulated into liposomes using an injection technique as described hereabove. Liposomes were prepared at pH 7.4 and pH 4.5, and incubated at 37° C. Periodical acquisition of ^31P-NMR spectra allowed determination of the time t, required for 50% hydrolysis (Table 3).

Percentage of LDH release, Lipoplex with siRNA (U87Luc), N/P: 25 (U87Luc cells; Table 7, N/P 25): −1.94%
Percentage of LDH release, Lipoplex with siRNA (U87Luc), N/P: 50 (U87Luc cells; Table 7, N/P 50): −1.83%
Percentage of LDH release, Lipoplex with siRNA (U87Luc), N/P: 100 (U87Luc cells; Table 7, N/P 100): 4.24%
Percentage of LDH release, Lipoplex with pDNA (BHK-21), N/P: 1 (BHK-21 cells [2]; Table 7, N/P 1): −0.09%
Percentage of LDH release, Lipoplex with pDNA (BHK-21), N/P: 3 (BHK-21 cells [2]; Table 7, N/P 3): 5.25%
Percentage of LDH release, Lipoplex with pDNA (BHK-21), N/P: 5 (BHK-21 cells [2]; Table 7, N/P 5): 2.38%
Molecule: CCCCCCCCCCCCCCCC(=O)OC[C@H](COP(=O)(OCCOCCOCCOCCOCCOCCOCCOCCOCCOc1ccc(C(C)(C)CC(C)(C)C)cc1)OCC[N+](C)(C)C)OC(=O)CCCCCCCCCCCCCCC (stereo partly drawn) [PP431]
Percentage of residual luciferase expression, Control siRNA, N/P: 25 (U87-Luc cells; Table 5, N/P 25): 96.59%
Percentage of residual luciferase expression, Luc-targeting siRNA, N/P: 25 (U87-Luc cells; Table 5, N/P 25): 107.08%
Percentage of residual luciferase expression, Control siRNA, N/P: 50 (U87-Luc cells; Table 5, N/P 50): 64.76%
Percentage of residual luciferase expression, Luc-targeting siRNA, N/P: 50 (U87-Luc cells; Table 5, N/P 50): 75.27%
Percentage of residual luciferase expression, Control siRNA, N/P: 100 (U87-Luc cells; Table 5, N/P 100): 54.07%
Percentage of residual luciferase expression, Luc-targeting siRNA, N/P: 100 (U87-Luc cells; Table 5, N/P 100): 54.05%
Luciferase expression (RLU/well), N/P: 1 (BHK-21 cells [1]; Table 6, N/P 1): 4.90 × 10^5 RLU/well
Luciferase expression (RLU/well), N/P: 3 (BHK-21 cells [1]; Table 6, N/P 3): 6.45 × 10^6 RLU/well
Luciferase expression (RLU/well), N/P: 5 (BHK-21 cells [1]; Table 6, N/P 5): 6.75 × 10^6 RLU/well

Particle size (nm) [3]: 364.3 ± 34.6 nm
Zeta potential (mV) [3]: −18.0 mV
Molecule: 1,2-Dioleoyl-sn-glycero-3-{4-[(dodecyloxy)-4-oxobutanoyloxy]methyl}phosphocholine chloride [PP93]
effect of helper lipid DOPE on pDNA transfection efficiency (BHK-21 cells [1]; BHK-21, lipid/DOPE mixtures, 1:1 molar ratio): unable to assist DNA transfection when mixed with DOPE
pDNA transfection activity, in words [4]: significant transfection activity

Molecule: CCCCCCCC/C=C\CCCCCCCC(=O)OCC(C[N+](C)(C)C)OC(=O)CCCCCCC/C=C\CCCCCCCC.[Cl-] (stereo not drawn) [DOTAP, 1,2-Dioleoyloxy-3-(N,N,N-trimethylamino)propyl chloride]
luciferase silencing / siRNA transfection activity, in words (U87-Luc cells): unable to assist siRNA silencing activity

Molecule: Triton X-100 [TX100]
concentration achieving full membrane permeation to hemoglobin (Sheep erythrocytes): 200 µM and 150 to 200 µM
concentration enough to decrease cell viability (16HBE cells): 20 to 40 µM

Percentage of LDH release, Lipoplex with siRNA (U87Luc), N/P: 25 (U87Luc cells; Table 10, N/P 25): −2.36%
Percentage of LDH release, Lipoplex with siRNA (U87Luc), N/P: 50 (U87Luc cells; Table 10, N/P 50): −3.13%
Percentage of LDH release, Lipoplex with siRNA (U87Luc), N/P: 100 (U87Luc cells; Table 10, N/P 100): −3.29%
Percentage of LDH release, Lipoplex with pDNA (BHK-21), N/P: 1 (BHK-21 cells [5]): 0.15%
Percentage of LDH release, Lipoplex with pDNA (BHK-21), N/P: 3 (BHK-21 cells [5]): 0.76%
Percentage of LDH release, Lipoplex with pDNA (BHK-21), N/P: 5 (BHK-21 cells [5]): 0.46%
Molecule: CCCCCCCCC=CCCCCCCCC(=O)OCC(COP(=O)(OCCCCCCCCCCCC)OCC[N+](C)(C)C)OC(=O)CCCCCCCC=CCCCCCCCC (mixture of isomers) [PP514]
Percentage of residual luciferase expression, Control siRNA, N/P: 25 (U87-Luc cells; Table 8, N/P 25): 100.51%
Percentage of residual luciferase expression, Luc-targeting siRNA, N/P: 25 (U87-Luc cells; Table 8, N/P 25): 103.75%
Percentage of residual luciferase expression, Control siRNA, N/P: 50 (U87-Luc cells; Table 8, N/P 50): 98.50%
Percentage of residual luciferase expression, Luc-targeting siRNA, N/P: 50 (U87-Luc cells; Table 8, N/P 50): 101.21%
Percentage of residual luciferase expression, Control siRNA, N/P: 100 (U87-Luc cells; Table 8, N/P 100): 94.58%
Percentage of residual luciferase expression, Luc-targeting siRNA, N/P: 100 (U87-Luc cells; Table 8, N/P 100): 99.76%
luciferase silencing / siRNA transfection activity, in words (U87-Luc cells): totally inefficient to transfect siRNA
pDNA transfection efficiency, in words (BHK-21 cells [1]): able to transfect DNA into cells
Luciferase expression (RLU/well), N/P: 1 (BHK-21 cells [1]; Table 9, N/P 1): 1.49 × 10^7 RLU/well
Luciferase expression (RLU/well), N/P: 3 (BHK-21 cells [1]; Table 9, N/P 3): 1.26 × 10^7 RLU/well
Luciferase expression (RLU/well), N/P: 5 (BHK-21 cells [1]; Table 9, N/P 5): 2.79 × 10^7 RLU/well

Molecule: 1,2-Dioleoyl-sn-glycero-3-{1-[(dodecyloxycarbonyl)oxy]-2-methylpropyl}phosphocholine chloride [PP178]
Particle size (nm) [3]: 721.8 ± 65.7 nm
Zeta potential (mV) [3]: +48.5 mV
pDNA transfection efficiency, in words (BHK-21 cells [1]): more effective than control phospholipid EDOPC
pDNA transfection activity, in words [4]: highest cell transfection levels
LDH release / cell toxicity, in words [6]: significant LDH release
LDH release (BHK-21 cells [2]; BHK-21, Part B pDNA lipoplexes, N/P 1, 3 and 5): 11%
t1/2 (h), time required for 50% hydrolysis ([7]; pH 4.5, 37° C.): 498 h
t1/2 (h), time required for 50% hydrolysis ([7]; pH 7.4, 37° C.): 497 h

Molecule: 1,2-Dioleoyl-sn-glycero-3-{1-[(dodecyloxycarbonyl)oxy]ethyl}phosphocholine chloride [PP120]
Particle size (nm) [3]: 819.3 ± 79.8 nm
Zeta potential (mV) [3]: +62.9 mV
pDNA transfection efficiency, in words (BHK-21 cells [1]): more effective than control phospholipid EDOPC
pDNA transfection activity, in words [4]: significant transfection activity
LDH release / cell toxicity, in words [6]: significant LDH release
t1/2 (h), time required for 50% hydrolysis ([7]; pH 4.5, 37° C.): 27 h
t1/2 (h), time required for 50% hydrolysis ([7]; pH 7.4, 37° C.): 29 h
